# Source: paper PMC4459106 (Scientific Reports, 2015)
# What was measured:
# [1] = tested on: ERK2; conditions: cited from earlier work
# From the text: While the biological relevance of this finding is debatable, care should be taken while analyzing in vitro data from studies that employ F-site and D-site containing ligands simultaneously.
# [2] = target: T1, ppERK2 (Rattus norvegicus, UniProt P63086); assay: Fluorescence-based kinase assay, phosphorylation of ERK-sensor-D1 by ppERK2; assay type: biochemical, rat (rat ERK2 numbering used throughout); conditions: for Km: 2 nM ppERK2, 25 mM HEPES pH 7.5, 10 mM MgCl2, 28 °C, fluorescence 360/492 nm; for Vmax: 2 nM ppERK2, 25 mM HEPES pH 7.5, 28 °C
# T1 construct: made in house
# Procedure: The ERK-sensor-D1 peptide[57] […] The reaction was initiated after 1 hour of pre-incubation at room temperature by adding 10 μL of 5 mM Mg^2+/ATP to 90 μL of assay mixture and the fluorescence intensity was recorded at each time point for a total of 6 minutes on a Fluorolog fluorimeter (Horiba Jobin Yvon) in quartz cuvettes (Starna Cells) with a 10 mm path length and a reaction volume of 100 μL. The sample was excited at 360 nm and fluorescence was monitored at 492 nm using excitation and emission slit widths of 3 nm. The change in fluorescence was related to the progression of the reaction using a previously determined conversion factor[58].
# [3] = target: T2, ppERK2 (D-recruitment site, DRS) (Rattus norvegicus, UniProt P63086); assay: NMR 15N,1H TROSY titration of ppERK2 with peptide ligand (CSPs; DRS affinity by two-site fit); assay type: binding, rat (rat ERK2 numbering used throughout); conditions: 130 μM ppERK2, 50 mM HEPES pH 6.8, KIM15-31 up to 992.0 μM
# T2 construct: made in house
# Procedure: Spectral perturbations on ppERK2 were assessed from ^15N, ^1H TROSY experiments at 600 MHz and 25.0 °C using 1024 and 128 complex points and sweep-widths of 15 and 33 ppm in the ^1H and ^15N dimensions, respectively. […] A 130 μM sample of ppERK2 in a buffer containing 50 mM HEPES pH 6.8, 150 mM NaCl, 200 μM EDTA and 2 mM DTT was titrated with the following amounts of KIM15-31: 49.2, 99,8, 149.0, 296.2, 450.6, 992.0 μM.
# T1 sequence (P63086 whole entry): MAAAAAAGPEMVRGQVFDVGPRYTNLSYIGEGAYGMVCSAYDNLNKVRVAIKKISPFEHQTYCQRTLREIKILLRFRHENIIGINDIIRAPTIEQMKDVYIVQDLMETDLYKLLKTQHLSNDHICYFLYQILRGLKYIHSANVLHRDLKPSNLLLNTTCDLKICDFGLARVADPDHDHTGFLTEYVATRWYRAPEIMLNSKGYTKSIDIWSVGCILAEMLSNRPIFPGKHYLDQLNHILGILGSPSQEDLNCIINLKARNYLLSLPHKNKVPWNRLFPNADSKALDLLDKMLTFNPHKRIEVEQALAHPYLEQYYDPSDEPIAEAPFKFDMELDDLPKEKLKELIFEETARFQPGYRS
# T2 sequence (P63086 whole entry): as above
substance,measurement,setting,value
PEA-15: anti-apoptotic small adaptor protein without canonical D-site or F-site sequences,binding to ERK2,[1],efficiently bind ERK2
QRKTLQRRNLKGLNLNL-X3-TGPLSPC-Sox-PF [ERK-sensor-D1],Km,[2]; absence of Elk387-399,10.1 ± 0.8 µM
same,Vmax,[2]; absence of Elk387-399,21.4 ± 0.5 nM phosphate/second
same,Km,[2]; presence of 100 μM Elk387-399,22.7 ± 2.8 µM
same,Vmax,[2]; presence of 100 μM Elk387-399,23.4 ± 1.1 nM phosphate/second
c-Fos: F-site containing c-Fos,increase in apparent KD of interaction with ppERK2 on DRS mutation,"[1]; F-site containing c-Fos, DRS-mutant vs native ERK2",2-3 -fold
"KIM15-31: DRS specific ligand (TLSLGAAMTQPPPEKTP; UniProt P35236 15-31, looked up, fragment)",CSPs on titration of ppERK2 with KIM15-31,[3],"the only significant CSPs are seen at the DRS and no significant long-range perturbations including at the FRS, are noted"
Ets-1: transcription factor possessing neither a canonical D-site nor F-site,binding to ERK2,[1],efficiently bind ERK2
